As usually defined, the melting point is the temperature of the solid-liquid transition.

The values below come from patent US6677488B2, “Substituted biphenyl compounds for the treatment of inflammation” (G.D. Searle & Co., priority 1995, dated 2004).

SMILES strings stand for the structures.

As for `NS(=O)(=O)c1ccc(-c2cc(F)c(F)cc2-c2ccc3c(c2)OCCO3)cc1` [Example 43, 4-[2-(2,3-Dihydro-1,4-benzodioxin-6-yl)-4,5-difluorophenyl]benzenesulfonamide], the melting point was 107 to 108 °C. Next, `CS(=O)(=O)c1ccc(-c2cc(Cl)c(Cl)cc2-c2ccc(F)cc2)cc1` [Example 44, 1,2-Dichloro-4-(4-fluorophenyl)-5-[4-(methylsulfonyl)phenyl]benzene]: 143.5 to 144.5 °C; `Cc1ccc(-c2cc(F)c(F)cc2-c2ccc(S(C)(=O)=O)cc2)cn1` [Example 47, 5-[4,5-Difluoro-4′-(methylsulfonyl)-(1,1′-biphenyl)-2-yl]-2-methylpyridine]: 141 to 142.5 °C. Consider `Cc1ccc(-c2cc(F)c(F)cc2-c2ccc(S(N)(=O)=O)cc2)cn1` [Example 48, 4-[4,5-Difluoro-2-(6-methylpyridin-3-yl)phenyl]benzenesulfonamide], for which the melting point is > 96 °C (dec.).
